In patent publication US20260335398A1, “METHODS FOR TREATING PANCREATIC CANCER WITH A COMBINATION OF DES-METHYL PATEAMINE A AND A CLASS I HDAC INHIBITOR” (Baylor University, priority 2023, published 2026):

Tests used:
[1] = patients, 4-hour infusion; cited from earlier work
MIA PaCa-2 and KLM cells [2] = test: Replication fork dynamics; type: cell-based; conditions: 24 hours
From the text: Having observed R-loop accumulation following treatment with the combination, it was hypothesized that hypertranscription, persistent hyperacetylation, and R-loop accumulation could increase the incidence of transcription replication conflicts, genome instability, and DNA damage and contribute to cell death. In response to DNA damage, replication protein A2 (RPA2) is phosphorylated at multiple sites by different protein kinases, including ATM, ATR, and DNA-PK, while the serine threonine-protein kinase, Chk1 (checkpoint kinase 1), is phosphorylated and activated by ATR. […] Drug treatments were for 24 hours (i.e., romidepsin treatment in combination or single agent romidepsin was 6 hours followed by 18-hour incubation with 2 nM DMPatA or with fresh medium respectively).

MIA PaCa-2 cells = test: Metabolic flux analysis, basal mitochondrial respiration (OCR) (FIG. 8C left); type: cell-based; conditions: MIA PaCa-2, total 18 h
Protocol: FIG. 8C left panel presents the results of metabolic flux analysis showing basal mitochondrial respiration (OXPHOS) (oxygen consumption rate, OCR) in MIA PaCa-2 cells following treatment with combinations or single drugs. Treatment was for a total of 18 h, as mentioned in FIG. 8A. Statistical significance was determined by one-way ANOVA, ***p value<0.001, *p value<0.01. FIG. 8C right panel presents the results of quantification of glutamine consumption. Cells were treated as mentioned in FIG. 8A. Prior to the metabolic measurements cells were starved of glucose, glutamine, and pyruvate for 1-hour after which glutamine was added and response was recorded as ΔOCR (i.e. OCR before and after glutamine addition). Statistical significance was determined by one-way ANOVA, ****p value<0.0001, ***p value<0.0005.
Because reprograming/augmentation of cellular metabolism by c-MYC is known to support oncogenesis, the Seahorse XF analyzer was used to assess the impact of the treatments on c-MYC-driven metabolism including ATP production, glycolysis, and mitochondrial oxidative phosphorylation (OXPHOS). Extracellular acidification rates, also known as proton efflux rate (PER), were measured for glycolysis and mitochondrial oxygen consumption rates (OCR) for OXPHOS. We utilized the 6 h exposure followed by 18 h washout strategy for romidepsin described earlier. […]

MIA PaCa-2 and KLM cells [3] = test: RNA-seq gene expression analysis (FIG. 9A); type: cell-based
Protocol: Plots show a significant increase in the overall gene expression in the cells treated with the combination. Cells treated for a total of 18 h (i.e., 6-hour romidepsin followed by 12-hour incubation with 2 nM DMPatA (combo) or without (Romi alone)).
To gain further insight into the effects of the combination treatment gene expression was profiled in MIA PaCa-2 and KLM cells treated with vehicle, the single agents, or the combination for a total of 18 h (i.e., 6-hour romidepsin treatment followed by 12-hour washout with 2 nM DMPatA or without), probing whether alterations observed following combination treatment could be explained by changes in gene expression.
Total RNA was extracted using RNeasy mini kit (Qiagen) from cells collected after 18 hours (6 hours romidepsin (15 nM)+12 hours washout with or without DMPatA (2 nM)) incubation with or without drugs. RNA quantitation and quality were assessed by the Agilent Bioanalyzer 2100 at the Molecular Pathology Shared Resource of the Herbert Irving Comprehensive Cancer Center at Columbia University (mBank). RNA library preparation and sequencing was performed at Columbia University's Sulzberger Genome Center. Briefly, poly-A pull-down was used to enrich mRNAs from total RNA samples, followed by library construction using Illumina TruSeq chemistry. Libraries were then sequenced using Illumina NovaSeq 6000. For the DESeq2 (v 1.40.2) analysis the data were imported with tximport in DESeq2 and a dds object was generated. Variance stabilizing transformation was used on the object and the output was used for the heatmap and PCA plots. Abundance of transcripts was estimated by pseudoalignment using kallisto, and downstream analysis was performed using R (v4.3.1) and the indicated packages. […] Differentially expressed genes were determined using linear regression method (limma v3.56.2), and genes with |log 2FC|≥1 and adjusted p-value <0.05 were plotted accordingly on volcano plots and heatmap (ggplot2 v3.5.0 and ComplexHeatmap v2.16.0). […]

SMILES: C/C=C1\NC(=O)[C@H]2CSSCC/C=C/[C@H](CC(=O)N[C@H](C(C)C)C(=O)N2)OC(=O)[C@H](C(C)C)NC1=O [romidepsin]
- half-life [1]: approximately 3.5 hour
- replication fork speed (MIA PaCa-2 and KLM cells [2]): significant reduction
- mitochondrial function (OCR) (MIA PaCa-2 cells): impaired mitochondrial function
- change in gene expression (MIA PaCa-2 and KLM cells [3]; romidepsin 15 nM 6 h, with or without DMPatA 2 nM): only a modest increase in gene expression
- number of differentially expressed genes (DEGs) (MIA PaCa-2 and KLM cells [3]; total 18 h (6 h romidepsin 15 nM + 12 h with/without DMPatA 2 nM), |log2FC|≥1, adjusted p<0.05): 1551 DEGs
